Molecular target: mitochondrial NAD+-dependent malic enzyme (ME)
Assay: NADH formation at […] nm, mitochondrial lysate, Ki from reciprocal plots
Type: biochemical, Anopheles stephensi

Compared with `O=C(O)C(O)C(=O)O` [Tartronate], `O=C(O)C(=O)O` [Oxalate] is 4.1-fold lower in Ki: 610 nM for the first, 150 nM for the second. The second binds more tightly here.

`O=C(O)CC(=O)C(=O)O` [Oxaloacetate] was tested, and the Ki was 120 nM.

— PMC3228860, “Mitochondrial NAD^+-dependent malic enzyme from Anopheles stephensi: a possible novel target for malaria mosquito control” (2011)
